The text below walks through data of ChEMBL document CHEMBL5678818, “Discovery of potent SOS1 inhibitors that block RAS activation via disruption of the RAS-SOS1 interaction” (Proc Natl Acad Sci U S A, 2019).

Assay [1] concerns the target T1, Tyrosine-protein kinase TXK (Homo sapiens) (UniProt P42681).
T1 sequence (whole entry): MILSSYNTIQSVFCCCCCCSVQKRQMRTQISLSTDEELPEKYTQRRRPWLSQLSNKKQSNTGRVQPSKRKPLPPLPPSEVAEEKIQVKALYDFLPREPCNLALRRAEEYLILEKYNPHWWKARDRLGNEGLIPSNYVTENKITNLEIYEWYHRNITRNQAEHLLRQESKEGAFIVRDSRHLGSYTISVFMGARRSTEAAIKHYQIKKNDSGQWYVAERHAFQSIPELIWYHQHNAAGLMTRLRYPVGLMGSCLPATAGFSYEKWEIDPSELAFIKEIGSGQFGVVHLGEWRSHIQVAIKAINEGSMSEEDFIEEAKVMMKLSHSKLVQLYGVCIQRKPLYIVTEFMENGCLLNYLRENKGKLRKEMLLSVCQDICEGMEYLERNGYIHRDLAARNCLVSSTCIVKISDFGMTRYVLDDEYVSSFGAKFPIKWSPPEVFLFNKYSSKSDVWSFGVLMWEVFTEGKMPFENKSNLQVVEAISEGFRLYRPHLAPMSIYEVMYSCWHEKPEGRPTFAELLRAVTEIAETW
Description: Inhibition of TXK (unknown origin) assessed as residual activity at 1000 nM by KINOMEscan analysis relative to control.

In assay [2] the target is Glycogen synthase kinase-3 alpha (Homo sapiens) (UniProt P49840). As to the kind of experiment: Inhibition of GSK3A (unknown origin) assessed as residual activity at 1000 nM by KINOMEscan analysis relative to control.
Chain of Glycogen synthase kinase-3 alpha (Homo sapiens) (P49840 2-483 limits assumed): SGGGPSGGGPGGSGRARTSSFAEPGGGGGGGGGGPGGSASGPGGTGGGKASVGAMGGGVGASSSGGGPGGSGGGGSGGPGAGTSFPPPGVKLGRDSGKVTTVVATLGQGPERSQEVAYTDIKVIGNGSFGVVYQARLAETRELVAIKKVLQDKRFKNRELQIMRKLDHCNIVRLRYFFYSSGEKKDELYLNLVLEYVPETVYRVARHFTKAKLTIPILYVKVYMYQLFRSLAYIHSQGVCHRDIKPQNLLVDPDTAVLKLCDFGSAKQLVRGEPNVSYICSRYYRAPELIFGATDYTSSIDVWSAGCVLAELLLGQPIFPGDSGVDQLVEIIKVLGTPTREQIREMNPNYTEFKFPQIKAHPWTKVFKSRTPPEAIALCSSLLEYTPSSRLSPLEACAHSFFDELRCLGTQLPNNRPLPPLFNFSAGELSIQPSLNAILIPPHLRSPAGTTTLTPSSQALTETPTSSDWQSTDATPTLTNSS
Assay [3] addresses T2, Interleukin-1 receptor-associated kinase 4 (Homo sapiens) (UniProt Q9NWZ3).
T2 sequence (whole entry): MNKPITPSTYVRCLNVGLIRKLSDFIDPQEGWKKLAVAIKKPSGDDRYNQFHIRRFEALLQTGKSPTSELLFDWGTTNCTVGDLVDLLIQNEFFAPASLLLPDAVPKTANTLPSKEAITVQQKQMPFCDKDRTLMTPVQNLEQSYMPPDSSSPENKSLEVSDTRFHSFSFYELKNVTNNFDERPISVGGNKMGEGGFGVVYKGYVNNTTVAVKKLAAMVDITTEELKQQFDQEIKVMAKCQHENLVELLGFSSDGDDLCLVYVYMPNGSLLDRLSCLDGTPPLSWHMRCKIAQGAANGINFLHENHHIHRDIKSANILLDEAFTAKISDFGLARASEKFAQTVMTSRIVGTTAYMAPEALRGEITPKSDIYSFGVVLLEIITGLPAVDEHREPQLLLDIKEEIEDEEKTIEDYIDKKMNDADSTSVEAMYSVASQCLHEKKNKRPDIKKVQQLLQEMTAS
Description: Inhibition of IRAK4 (unknown origin) assessed as residual activity at 1000 nM by KINOMEscan analysis relative to control.

Assay [4] addresses Homeodomain-interacting protein kinase 1 (Homo sapiens) (UniProt Q86Z02). As to the kind of experiment: Inhibition of HIPK1 (unknown origin) assessed as residual activity at 1000 nM by KINOMEscan analysis relative to control.
Assay [5] deals with Serine/threonine-protein kinase PAK 6 (Homo sapiens) (UniProt Q9NQU5). As to the kind of experiment: Inhibition of PAK6 (unknown origin) assessed as residual activity at 1000 nM by KINOMEscan analysis relative to control.
Assay [6] deals with Tyrosine-protein kinase ABL1 (Homo sapiens) (UniProt P00519). As to the kind of experiment: Inhibition of phosphorylated ABL1 (unknown origin) assessed as residual activity at 1000 nM by KINOMEscan analysis relative to control.
Chain of Tyrosine-protein kinase ABL1 (Homo sapiens) (P00519 whole entry): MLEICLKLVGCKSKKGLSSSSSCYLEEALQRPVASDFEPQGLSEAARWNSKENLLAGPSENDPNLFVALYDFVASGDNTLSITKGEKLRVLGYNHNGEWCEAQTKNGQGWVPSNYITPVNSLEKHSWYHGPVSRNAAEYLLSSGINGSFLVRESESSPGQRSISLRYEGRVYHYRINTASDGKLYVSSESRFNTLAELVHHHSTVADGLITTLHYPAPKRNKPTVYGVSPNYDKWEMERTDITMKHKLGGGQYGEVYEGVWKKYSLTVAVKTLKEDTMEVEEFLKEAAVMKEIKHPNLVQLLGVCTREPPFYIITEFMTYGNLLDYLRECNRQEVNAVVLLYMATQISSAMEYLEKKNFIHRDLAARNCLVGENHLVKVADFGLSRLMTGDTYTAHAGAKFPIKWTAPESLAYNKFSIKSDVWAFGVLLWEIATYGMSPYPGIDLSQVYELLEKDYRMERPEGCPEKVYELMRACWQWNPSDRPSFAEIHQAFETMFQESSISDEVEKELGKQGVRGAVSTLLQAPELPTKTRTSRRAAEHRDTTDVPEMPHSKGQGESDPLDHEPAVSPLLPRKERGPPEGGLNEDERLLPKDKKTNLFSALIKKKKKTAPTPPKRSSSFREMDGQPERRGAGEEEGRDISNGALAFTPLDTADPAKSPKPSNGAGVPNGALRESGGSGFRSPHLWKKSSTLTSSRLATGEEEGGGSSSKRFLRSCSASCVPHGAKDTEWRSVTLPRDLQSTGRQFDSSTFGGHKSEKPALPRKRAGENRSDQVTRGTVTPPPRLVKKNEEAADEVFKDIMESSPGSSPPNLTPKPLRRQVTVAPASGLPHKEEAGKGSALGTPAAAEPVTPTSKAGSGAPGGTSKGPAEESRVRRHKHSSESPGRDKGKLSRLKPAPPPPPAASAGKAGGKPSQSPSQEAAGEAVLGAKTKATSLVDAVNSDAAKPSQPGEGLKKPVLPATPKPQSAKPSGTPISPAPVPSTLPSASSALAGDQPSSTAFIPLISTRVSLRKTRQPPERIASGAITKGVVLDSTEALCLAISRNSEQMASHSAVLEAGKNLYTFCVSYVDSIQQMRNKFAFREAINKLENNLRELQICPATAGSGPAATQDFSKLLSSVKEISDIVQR
Assay [7] concerns the target Cyclin-dependent kinase-like 1 (Homo sapiens) (UniProt Q00532). As to the kind of experiment: Inhibition of CDKL1 (unknown origin) assessed as residual activity at 1000 nM by KINOMEscan analysis relative to control.
The target of assay [8] is T3, Dual serine/threonine and tyrosine protein kinase (Homo sapiens) (UniProt Q6XUX3).
T3 sequence (whole entry): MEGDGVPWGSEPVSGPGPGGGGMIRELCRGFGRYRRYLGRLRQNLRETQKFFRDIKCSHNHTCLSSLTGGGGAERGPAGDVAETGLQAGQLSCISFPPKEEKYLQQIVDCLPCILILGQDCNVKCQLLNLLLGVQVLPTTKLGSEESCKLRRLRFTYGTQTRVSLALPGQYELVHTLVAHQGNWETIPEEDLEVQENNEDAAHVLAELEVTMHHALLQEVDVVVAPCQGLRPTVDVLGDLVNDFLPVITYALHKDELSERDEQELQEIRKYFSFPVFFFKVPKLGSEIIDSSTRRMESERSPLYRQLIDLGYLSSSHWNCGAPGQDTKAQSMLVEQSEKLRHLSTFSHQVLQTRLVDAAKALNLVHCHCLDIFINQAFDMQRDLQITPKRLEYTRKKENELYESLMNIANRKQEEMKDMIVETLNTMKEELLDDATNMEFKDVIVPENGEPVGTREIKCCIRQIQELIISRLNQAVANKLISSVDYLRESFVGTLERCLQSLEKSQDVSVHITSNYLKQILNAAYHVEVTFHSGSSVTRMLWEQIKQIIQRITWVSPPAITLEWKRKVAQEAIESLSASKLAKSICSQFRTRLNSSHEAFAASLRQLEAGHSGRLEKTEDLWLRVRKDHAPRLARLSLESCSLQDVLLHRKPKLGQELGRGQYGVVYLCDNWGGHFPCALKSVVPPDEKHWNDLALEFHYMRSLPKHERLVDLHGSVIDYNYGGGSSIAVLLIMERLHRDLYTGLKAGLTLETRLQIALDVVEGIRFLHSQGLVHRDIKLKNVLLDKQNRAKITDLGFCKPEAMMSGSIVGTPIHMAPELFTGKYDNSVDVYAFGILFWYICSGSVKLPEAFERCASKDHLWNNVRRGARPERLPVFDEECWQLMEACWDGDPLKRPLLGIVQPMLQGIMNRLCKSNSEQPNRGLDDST
Description: Inhibition of RIPK5 (unknown origin) assessed as residual activity at 1000 nM by KINOMEscan analysis relative to control.

Assay [9] addresses Serine/threonine-protein kinase 38-like (Homo sapiens) (UniProt Q9Y2H1). As to the kind of experiment: Inhibition of NDR2 (unknown origin) assessed as residual activity at 1000 nM by KINOMEscan analysis relative to control.
Assay [10] deals with Calcium/calmodulin-dependent protein kinase type II subunit gamma (Homo sapiens) (UniProt Q13555). As to the kind of experiment: Inhibition of CAMK2G (unknown origin) assessed as residual activity at 1000 nM by KINOMEscan analysis relative to control.
Chain of Calcium/calmodulin-dependent protein kinase type II subunit gamma (Homo sapiens) (Q13555 whole entry): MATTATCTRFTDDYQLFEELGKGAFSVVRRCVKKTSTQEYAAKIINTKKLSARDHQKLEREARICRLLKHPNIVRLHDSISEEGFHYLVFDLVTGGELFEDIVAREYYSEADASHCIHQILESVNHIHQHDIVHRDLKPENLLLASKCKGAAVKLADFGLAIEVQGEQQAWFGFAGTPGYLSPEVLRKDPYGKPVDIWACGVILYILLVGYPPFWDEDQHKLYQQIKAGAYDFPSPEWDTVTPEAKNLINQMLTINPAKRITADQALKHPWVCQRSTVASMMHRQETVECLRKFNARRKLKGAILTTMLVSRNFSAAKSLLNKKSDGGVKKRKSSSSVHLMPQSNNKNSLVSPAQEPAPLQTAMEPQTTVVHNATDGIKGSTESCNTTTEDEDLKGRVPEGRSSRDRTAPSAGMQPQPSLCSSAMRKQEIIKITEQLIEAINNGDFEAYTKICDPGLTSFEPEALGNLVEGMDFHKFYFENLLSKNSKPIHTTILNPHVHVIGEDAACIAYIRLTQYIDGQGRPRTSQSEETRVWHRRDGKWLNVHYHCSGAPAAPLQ
In assay [11] the target is Casein kinase II subunit alpha (Homo sapiens) (UniProt P68400). As to the kind of experiment: Inhibition of CSNK2A1 (unknown origin) assessed as residual activity at 1000 nM by KINOMEscan analysis relative to control.
Chain of Casein kinase II subunit alpha (Homo sapiens) (P68400 whole entry, looked up): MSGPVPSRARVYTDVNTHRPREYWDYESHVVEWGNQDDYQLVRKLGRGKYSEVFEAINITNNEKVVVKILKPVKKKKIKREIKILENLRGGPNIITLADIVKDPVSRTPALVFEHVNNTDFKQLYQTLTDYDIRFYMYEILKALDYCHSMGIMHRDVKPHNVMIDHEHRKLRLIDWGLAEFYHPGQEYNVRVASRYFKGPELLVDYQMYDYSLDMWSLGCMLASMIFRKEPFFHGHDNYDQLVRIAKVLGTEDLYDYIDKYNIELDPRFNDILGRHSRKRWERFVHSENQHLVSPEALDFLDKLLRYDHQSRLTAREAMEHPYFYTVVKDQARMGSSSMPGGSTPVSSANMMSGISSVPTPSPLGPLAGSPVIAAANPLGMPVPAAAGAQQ

Chain of Cyclin-dependent kinase-like 1 (Homo sapiens) (Q00532 whole entry): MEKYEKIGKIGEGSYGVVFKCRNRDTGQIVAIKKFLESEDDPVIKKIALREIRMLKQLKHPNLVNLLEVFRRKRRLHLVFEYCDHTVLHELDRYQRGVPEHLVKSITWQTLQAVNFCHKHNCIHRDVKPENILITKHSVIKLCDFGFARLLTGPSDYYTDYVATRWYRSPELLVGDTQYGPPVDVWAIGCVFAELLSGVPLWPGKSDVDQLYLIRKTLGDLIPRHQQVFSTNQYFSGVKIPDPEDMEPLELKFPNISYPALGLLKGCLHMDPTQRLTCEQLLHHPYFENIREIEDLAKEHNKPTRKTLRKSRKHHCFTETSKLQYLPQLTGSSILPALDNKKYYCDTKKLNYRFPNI
Chain of Homeodomain-interacting protein kinase 1 (Homo sapiens) (Q86Z02 whole entry, looked up): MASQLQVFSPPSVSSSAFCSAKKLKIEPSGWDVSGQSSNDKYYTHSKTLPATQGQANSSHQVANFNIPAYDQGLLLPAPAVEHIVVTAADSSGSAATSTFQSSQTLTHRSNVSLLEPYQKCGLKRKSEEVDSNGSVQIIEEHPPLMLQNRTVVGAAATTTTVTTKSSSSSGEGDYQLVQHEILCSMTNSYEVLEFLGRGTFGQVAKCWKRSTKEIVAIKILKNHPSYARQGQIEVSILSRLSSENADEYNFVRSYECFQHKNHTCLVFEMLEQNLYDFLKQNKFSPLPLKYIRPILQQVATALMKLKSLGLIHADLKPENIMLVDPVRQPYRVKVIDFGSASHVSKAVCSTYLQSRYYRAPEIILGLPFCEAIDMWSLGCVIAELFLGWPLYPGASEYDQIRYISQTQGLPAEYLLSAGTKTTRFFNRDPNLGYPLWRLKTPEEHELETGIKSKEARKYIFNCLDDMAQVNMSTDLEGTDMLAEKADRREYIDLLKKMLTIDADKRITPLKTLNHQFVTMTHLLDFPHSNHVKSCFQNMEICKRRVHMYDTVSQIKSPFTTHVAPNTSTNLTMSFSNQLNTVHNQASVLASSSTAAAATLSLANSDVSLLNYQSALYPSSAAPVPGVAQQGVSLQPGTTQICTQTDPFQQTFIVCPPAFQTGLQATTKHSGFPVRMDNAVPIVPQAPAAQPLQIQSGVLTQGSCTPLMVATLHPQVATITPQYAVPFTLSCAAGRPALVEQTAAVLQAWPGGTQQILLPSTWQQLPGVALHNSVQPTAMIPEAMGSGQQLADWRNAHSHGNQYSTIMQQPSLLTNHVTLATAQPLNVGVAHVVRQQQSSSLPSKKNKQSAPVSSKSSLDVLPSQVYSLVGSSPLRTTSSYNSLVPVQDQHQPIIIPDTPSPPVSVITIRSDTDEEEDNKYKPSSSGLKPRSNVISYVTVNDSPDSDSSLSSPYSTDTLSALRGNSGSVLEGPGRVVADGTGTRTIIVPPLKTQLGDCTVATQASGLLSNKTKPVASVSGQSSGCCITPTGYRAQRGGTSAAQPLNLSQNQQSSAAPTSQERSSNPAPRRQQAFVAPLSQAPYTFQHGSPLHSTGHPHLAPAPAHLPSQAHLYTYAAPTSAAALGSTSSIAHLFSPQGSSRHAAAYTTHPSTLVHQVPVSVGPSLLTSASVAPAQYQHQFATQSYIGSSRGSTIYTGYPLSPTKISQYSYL
Chain of Serine/threonine-protein kinase 38-like (Homo sapiens) (Q9Y2H1 2-464 limits assumed): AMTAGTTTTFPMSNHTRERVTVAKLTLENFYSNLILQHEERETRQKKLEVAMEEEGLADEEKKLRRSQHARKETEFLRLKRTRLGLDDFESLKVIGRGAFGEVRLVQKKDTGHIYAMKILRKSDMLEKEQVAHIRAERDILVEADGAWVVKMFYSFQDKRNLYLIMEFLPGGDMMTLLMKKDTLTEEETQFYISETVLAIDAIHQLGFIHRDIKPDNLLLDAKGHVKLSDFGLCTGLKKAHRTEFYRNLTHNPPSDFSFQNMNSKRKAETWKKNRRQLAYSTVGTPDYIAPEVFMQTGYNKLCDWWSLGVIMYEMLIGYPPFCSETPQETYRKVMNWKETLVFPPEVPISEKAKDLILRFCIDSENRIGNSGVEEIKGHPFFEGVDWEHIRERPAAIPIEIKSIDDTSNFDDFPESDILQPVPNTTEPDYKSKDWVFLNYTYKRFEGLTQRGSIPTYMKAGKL

For the compound `COc1cc2ncnc(N[C@H](C)c3cccc4ccccc34)c2cc1OC`, the Activity in [1] stood at 100%; in assay [2], 70%; in assay [3], 83%; in assay [4] it was 89%; in [5], 91%; in [6], 97%. The Activity in assay [7] was determined as 89%; in assay [8] it was 86%; in assay [9], 86%; in assay [10] it was 92%; in assay [11], 100%.

As to `COc1cc2nc(C)nc(N[C@H](C)c3cccc(-c4cn[nH]c4)c3)c2cc1OC`, the Activity came out at 83% in assay [1]; 95% in assay [2]; 59% in [3]; 67% in assay [4]; 88% in [5]; 81% in [6]. The Activity in [7] stood at 73%; in [8], 77%; in assay [9], 87%; in [10], 83%; in assay [11] it was 70%.
